This is an account of results in article PMC8359193, “Summary of reference chemicals evaluated by the fish short‐term reproduction assay, OECD TG229, using Japanese Medaka, Oryzias latipes” (Journal of Applied Toxicology, 2021).

“Also recorded” adds a separate entry of the source. Read-outs that look alike come from different tables or passages of the source.

Data set [1] addresses T1, medaka Esr1 (mEsr1) (Oryzias latipes, UniProt P50241).
T1 construct: expressed in transfected cells; host or cells: HEK293 (human embryonic kidney cells), transient transfection with FuGENE HD
T1 sequence (P50241 1-620): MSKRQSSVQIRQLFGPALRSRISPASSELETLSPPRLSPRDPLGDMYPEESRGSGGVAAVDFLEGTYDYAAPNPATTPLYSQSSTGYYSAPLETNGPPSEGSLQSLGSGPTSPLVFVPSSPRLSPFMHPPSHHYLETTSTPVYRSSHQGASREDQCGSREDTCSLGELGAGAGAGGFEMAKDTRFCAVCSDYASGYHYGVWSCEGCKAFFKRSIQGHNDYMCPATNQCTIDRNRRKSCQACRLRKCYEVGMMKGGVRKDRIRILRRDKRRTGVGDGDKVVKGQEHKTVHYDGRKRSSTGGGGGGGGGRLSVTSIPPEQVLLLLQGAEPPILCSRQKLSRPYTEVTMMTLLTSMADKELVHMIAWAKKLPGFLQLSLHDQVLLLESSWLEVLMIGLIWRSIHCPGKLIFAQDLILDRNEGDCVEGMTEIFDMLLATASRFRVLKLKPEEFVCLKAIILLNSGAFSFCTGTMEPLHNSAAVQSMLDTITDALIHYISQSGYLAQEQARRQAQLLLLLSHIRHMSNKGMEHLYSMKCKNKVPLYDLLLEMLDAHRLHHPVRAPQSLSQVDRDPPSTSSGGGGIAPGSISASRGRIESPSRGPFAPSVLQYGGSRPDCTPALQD
In words: cell-based. The format is cell-based, Japanese medaka (Oryzias latipes). The method, then: (§1) To support interpretation of the biological effects observed in the FSTRA studies, in vitro RGAs using medaka Esr1 (mEsr1) and medaka ARβ (mARβ) were performed for the 16 test chemicals. In the present study, Esr1 and ARβ, which are ancestral subtypes among Esrs and ARs in Japanese medaka, were selected based on the phylogenetical analyses of Esr and AR with each receptor RGAs (Ogino et al., [2016], [2018]; Tohyama et al., [2015]).
(§2) The mEsr1 RGA consisting of agonist and antagonist assays were performed according to the methods previously reported (Katsu et al., [2010]; Lange et al., [2012]; Miyagawa et al., [2014]). Briefly, human embryonic kidney cells 293 (HEK293), precultured, were seeded in 96‐well plates at 15,000 cells/well with 200 μl of culture medium, phenol‐red‐free Dulbecco's Modified Eagle's medium (ThermoFisher Scientific K.K., Tokyo, Japan) supplemented with 2‐mM L‐glutamine and 10% charcoal/dextran‐treated fetal bovine serum (Hyclone, UT, USA), and then incubated for 24 h in 5% CO2 at 37°C. After the 24‐h incubation, 20 μl of test medium containing 40 ng of medaka Esr1/pcDNA3.1, 80 ng of ERE‐TK‐Luc, and 20 ng of pRL‐TK‐Rlu and 1.2 μL of transfection reagent FuGENE HD (Promega, WI, USA) were added into each well. The assay plates were incubated for another 4 h in order to transfect the three vectors into the HEK293 cells. After the vectors were successfully transfected, in agonist assay, 24 μl of concentrated test chemical solution was applied to the test medium in the plate wells. […] After chemical treatment for 40 h, luciferase activity of the cells was measured, and the promoter activity was calculated as firefly (Photinus pyralis)‐/sea pansy (Renilla reniformis)‐luciferase activity in each well. The luciferase activities were quantified by a chemiluminescence assay with Dual‐Luciferase Reporter Assay System (Promega) in accordance with the manufacturer's instructions, and luminescence intensity of firefly and sea pansy luciferin was measured using a luminometer, TriStar LB941 (Berthold Technology, Oak Ridge, TN, USA).
(§3) Effect concentrations, that is, EC50 (a half maximal effective concentration) in the agonist assay and IC50 (a half maximal inhibitory concentration) in the antagonist assay, were estimated by nonlinear curve fitting (e.g., three parameters logistic regression curve) using GraphPad Prism (GraphPad Software Inc., La Jolla, CA, USA).

Data set [2] relates to Japanese medaka. As to conditions: cited from earlier work.
The target in data set [3] is T2, medaka ARβ (mARβ) (Oryzias latipes, UniProt D1MV73). In words: Medaka ARβ reporter gene assay (RGA), antagonist assay with 50 nM 11KT, HepG2 cells. As to conditions: mARβ RGA antagonist assay, 50 nM 11KT-induced activity; ND = no significant response even at the highest assay concentration (in parentheses). It counts as cell-based, Japanese medaka (Oryzias latipes). How it is done: as §1
The mARβ RGA in which the agonist and the antagonist assays were performed as same as the mEsr1 RGA was carried out according to the methods previously reported by Lange et al. ([2015]). For the assays, human liver cancer cell line, HepG2, was used as the host cells, and mARβ/pcDNA3.1, MMTV‐Luc, and pRL‐TK‐Rlu were used as mARβ expression vector, reporter vector, and internal control vector, respectively. Other materials and methods, for example, operating procedure, reagents, and incubation conditions, were almost the same as the mEsr1 RGA previously described beside that 11KT (Sigma‐Aldrich, purity 99.0%), a main AR ligand in fish, was competitively spiked at 50 nM into the test medium with test chemicals in antagonist assay. In the agonist and the antagonist assays, 11KT and 2‐hydroxyflutamide (2HFLT; Sigma‐Aldrich, purity 98.5%) were used as positive controls, respectively.
as §3

Data set [4] concerns the target T1, medaka Esr1 (mEsr1). Nature of the data set: Medaka Esr1 reporter gene assay (RGA), antagonist assay with 1 nM E2, HEK293 cells. The format is cell-based, Japanese medaka (Oryzias latipes). The method, then:
as §1, §2, §3
(A reporter such as luciferase makes a cellular process visible.)

The target of data set [5] is T2, medaka ARβ (mARβ). In words: Medaka ARβ reporter gene assay (RGA), agonist assay, HepG2 cells. The format is cell-based, Japanese medaka (Oryzias latipes). As to conditions: for EC50: mARβ RGA agonist assay, ND = no significant response even at the highest assay concentration (in parentheses). The method, then:
To support interpretation of the biological effects observed in the FSTRA studies, in vitro RGAs using medaka Esr1 (mEsr1) and medaka ARβ (mARβ) were performed for the 16 test chemicals.
For the assays, human liver cancer cell line, HepG2, was used as the host cells, and mARβ/pcDNA3.1, MMTV‐Luc, and pRL‐TK‐Rlu were used as mARβ expression vector, reporter vector, and internal control vector, respectively.
as §3

The nature of data set [6]: P4 concentration in test solutions with and without UV irradiation (biodegradation check). It counts as physicochemical.
The test system of data set [7] is Japanese medaka. As to conditions: cited from earlier work. This is another data set of the same source.
Where [8] appears, read: mEsr1 RGA agonist assay, ND = no significant response even at the highest assay concentration (in parentheses), read-out: Agonist assay, EC50, Medaka Esr1.
Setting [9] is: mEsr1 RGA antagonist assay, 1 nM E2-mediated transactivation, ND = no significant response even at the highest assay concentration (in parentheses), read-out: Antagonist assay, IC50, Medaka Esr1.
Setting [10] is: F0 generation, FLCT, ref Seki et al. (2003).

T2 sequence (D1MV73 entry or part of it): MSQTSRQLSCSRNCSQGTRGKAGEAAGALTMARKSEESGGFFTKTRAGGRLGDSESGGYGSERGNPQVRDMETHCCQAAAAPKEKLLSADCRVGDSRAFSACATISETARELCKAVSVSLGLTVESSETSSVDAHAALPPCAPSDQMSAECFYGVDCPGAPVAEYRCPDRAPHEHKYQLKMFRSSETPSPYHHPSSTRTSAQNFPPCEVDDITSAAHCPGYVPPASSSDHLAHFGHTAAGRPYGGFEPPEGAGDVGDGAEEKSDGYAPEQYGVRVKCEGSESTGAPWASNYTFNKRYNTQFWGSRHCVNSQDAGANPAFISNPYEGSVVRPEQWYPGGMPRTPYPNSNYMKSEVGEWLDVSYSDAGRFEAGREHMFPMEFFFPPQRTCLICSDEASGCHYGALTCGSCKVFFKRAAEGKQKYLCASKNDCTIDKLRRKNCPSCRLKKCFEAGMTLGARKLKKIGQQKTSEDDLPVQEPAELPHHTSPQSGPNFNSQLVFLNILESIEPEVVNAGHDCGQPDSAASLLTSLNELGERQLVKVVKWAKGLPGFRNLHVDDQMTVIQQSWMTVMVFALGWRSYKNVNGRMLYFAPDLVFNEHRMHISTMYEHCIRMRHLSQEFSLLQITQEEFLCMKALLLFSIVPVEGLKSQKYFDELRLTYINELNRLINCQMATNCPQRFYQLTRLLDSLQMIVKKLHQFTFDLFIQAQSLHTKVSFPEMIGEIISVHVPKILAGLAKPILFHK

As a reminder, the EC50 is the concentration needed to bring the measured effect to its halfway point. As for `Cc1cc(O)ccc1Cl` [CMP, 4‐Chloro‐3‐methylphenol], at medaka Esr1 (mEsr1) [1] (read-out: Agonist assay, EC50, Medaka Esr1, mEsr1 RGA agonist assay, ND = no significant response even at the highest assay concentration (in parentheses)), the EC50 amounted to 61 µM.
Usually IC50 stands for the concentration that gives 50% inhibition. As to `C#C[C@]1(O)CC[C@H]2[C@@H]3CCc4cc(O)ccc4[C@H]3CC[C@@]21C` [EE2, 17α‐Ethynylestradiol], in the data set with Japanese medaka [2] (F0 generation, FLCT, ref MOE, 2006), the “concentration that significantly elevated male VTG and reduced fertility” value is 9.26 pg/mL. Moreover, on medaka ARβ (mARβ) [3], the IC50 amounted to 0.14 µM. In addition, the EC50 at medaka Esr1 (mEsr1) [1] (setting [8]) was 0.00088 µM.
Turning to `CC(=O)N1CCN(c2ccc(OCC3COC(Cn4ccnc4)(c4ccc(Cl)cc4Cl)O3)cc2)CC1` (centres unmarked) [KCZ, Ketoconazole], at medaka Esr1 (mEsr1) [4], the IC50 was above 10 µM.
As for `C#C[C@]1(O)CC[C@H]2[C@@H]3CCC4=CC(=O)CC[C@@H]4[C@H]3CC[C@@]21CC` [LNG, Levonorgestrel], the IC50 at medaka Esr1 (mEsr1) [4] was above 100 µM. Also, on medaka Esr1 (mEsr1) [1] (setting [8]), the EC50 was 1.1 µM. On medaka ARβ (mARβ) [5], the “mARβ agonist activity (in words)” value is “potent AR agonists”.
In the case of `C[C@]12CCC(=O)C=C1CC[C@@H]1[C@@H]2CC[C@@]2(C)[C@H]1CC[C@]2(C)O` [MT, 17α‐methyltestosterone], the “concentration causing induction of SSC in females and reduction of reproduction” value with Japanese medaka [2] (long-term testing, ref Seki et al., 2004) is 9.98 pg/mL. Besides, the IC50 on medaka Esr1 (mEsr1) [4] (setting [9]) is above 10 µM. Moreover, the EC50 at medaka ARβ (mARβ) [5] stood at 0.00012 µM.
In turn, `CC(=O)[C@H]1CC[C@H]2[C@@H]3CCC4=CC(=O)CC[C@]4(C)[C@H]3CC[C@]12C` [P4, Progesterone] displayed an IC50 at medaka Esr1 (mEsr1) [4] above 10 µM. Moreover, the “P4 concentration, % of the nominal” value in data set [6] (test solution after 24-h UV treatment) is “more than 80 % of the nominal”; in data set [6] (test solution without UV treatment), “less than 20 % of the nominal”. In addition, the concentration for a half-maximal effect (EC50) on medaka Esr1 (mEsr1) [1] is above 10 µM. For the same compound, at medaka ARβ (mARβ) [5], the “mARβ agonist activity (in words)” value is listed as “potent AR agonists”.
`CCC(C)(C)c1ccc(O)cc1` [PTH, 4‐tert‐Pentylphenol]: in the data set on Japanese medaka [2] (setting [10]), the “LOEC on VTG induction” value was at most 51.1 µg/L and the “LOEC on reproductive impairment” value was 224 µg/L. Also, the EC50 on medaka Esr1 (mEsr1) [1] (setting [8]) came to 0.97 µM.
Consider `CCCCCCCCCCCCOS(=O)(=O)[O-].[Na+]` [SDS, Sodium dodecyl sulfate], for which, on medaka Esr1 (mEsr1) [4] (1 nM E2-mediated mEsr1 transactivation), the “mEsr1 antagonist activity (in words)” value is on record as “no Esr inhibiting activity; also recorded: neithEsr agonistic nor antagonistic activity”. The IC50 at medaka Esr1 (mEsr1) [4] (setting [9]) and on medaka ARβ (mARβ) [3] was above 100 µM in each case. Moreover, at medaka Esr1 (mEsr1) [1] (highest concentration 100 μM), the “mEsr1 agonist activity (in words)” value is “could not be determined; also recorded: neithEsr agonistic nor antagonistic activity”. Moreover, the EC50 on medaka Esr1 (mEsr1) [1] (setting [8]) and at medaka ARβ (mARβ) [5] was above 100 µM each time. Moreover, the “mARβ agonist activity (in words)” value at medaka ARβ (mARβ) [5] is “no significant increase in hold activation; also recorded: neithEsr agonistic nor antagonistic activity”.
At medaka Esr1 (mEsr1) [4], `C[C@]12C=CC3=C4CCC(=O)C=C4CC[C@H]3[C@@H]1CC[C@@H]2O` [TRB, 17β‐Trenbolone] returned an IC50 above 10 µM. In the data set with Japanese medaka [7] (in vivo), the “concentration causing reduction of reproduction” value is 13 pg/mL. The “concentration causing induction of SSC in females” value in the data set with Japanese medaka [7] (long-term testing, ref Flynn et al., 2017) is recorded as 32 ng/L.
